Measurements from patent publication US20050256103A1, “Indole derivative having piperidine ring” (Eisai Co., Ltd., priority 2004, published 2005).
Read-outs that look alike come from different tables or passages of the source.

Experiments:
5-HT1A receptor = biological target: T1, 5-HT1A receptor (Sus scrofa, UniProt A0A4X1UTF5); test: Affinity for serotonin 1A receptor: inhibition of [3H]MPPF binding in swine hippocampal membrane fraction; settings: for IC50: [3H]MPPF 0.5 nM, swine hippocampal membrane, 37°C 30 min
T1 construct: Swine hippocampus was homogenized in a 50 mM Tris-Hcl buffer; from tissue; host or cells: swine hippocampus, membrane fraction
T1 sequence (A0A4X1UTF5 1-422): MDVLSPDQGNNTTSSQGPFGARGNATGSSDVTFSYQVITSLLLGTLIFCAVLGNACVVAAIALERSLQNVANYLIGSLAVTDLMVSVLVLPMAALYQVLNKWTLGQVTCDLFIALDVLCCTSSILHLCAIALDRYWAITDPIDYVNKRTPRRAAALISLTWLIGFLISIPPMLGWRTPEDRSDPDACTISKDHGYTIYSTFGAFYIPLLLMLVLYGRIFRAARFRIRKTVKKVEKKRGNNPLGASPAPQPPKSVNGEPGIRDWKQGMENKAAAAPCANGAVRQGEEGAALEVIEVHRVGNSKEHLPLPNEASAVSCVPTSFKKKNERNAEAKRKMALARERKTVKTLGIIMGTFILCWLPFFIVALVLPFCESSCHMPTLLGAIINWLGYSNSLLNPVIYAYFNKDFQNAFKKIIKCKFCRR
Method in brief: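 Swine hippocampal membranes incubated 30 min at 37 °C with 0.5 nM [3H]MPPF and test compound in 50 mM Tris-HCl pH 7.4, 1% DMSO, with 10 mM MgCl2 (G-protein-coupled, high-affinity state) or 1 mM Gpp(NH)p (uncoupled, low-affinity state). Bound radioactivity measured by filtration and scintillation counting; nonspecific binding defined with 10 μM WAY-100,635. IC50 in each state; low/high IC50 ratio taken as an estimate of intrinsic activity.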

male C57BL mice = test: Antianxiety effect by mouse light/dark box test; format: in vivo; settings: sc, 30 minutes before test, 5 min observation, N 7
Experimental: (1) The method of Belzung C., Misslin R., and Vogel E. (Reference: Behavioural effects of the benzodiazepine receptor partial agonist RO16-6028 in mice, Psychopharmacology, 97, 388-391, 1989) was modified. The present mouse light/dark box test was carried out according to such a modified method. As a test device used in this test, a lidded black acryl box (dark box, 15×10×20 cm) was connected to a lidless white acryl box (light box, 15×20×20 cm) using a black-acryl tunnel (10×7×4.5 cm), so as to prepare a light/dark box in which a mouse can freely move between the dark box and the light box. In this test device, in order to observe the behavior of the mouse, the anterior surface (20×20 cm) and back surface (20×20 cm) of the light box were made from transparent acryl. The illumination was set to provide in an illuminance of 150 Lux on the floor of the light box. Thereafter, each of male C57BL mice (20-35 g) was placed in the dark box, and the test was started. In this test, a test substance was subcutaneously administered to the test animal 30 minutes before the initiation of the test.
A state where the 4 legs of the mouse were contacted with on the floor of the light box was defined as stay at a light place, and the time when the mouse stayed at a light place was measured. The obtained time was used as an index of antianxiety action.

[1] = test system: urinary reflex of Sprague-Dawley female rats; test: Inhibitory action against accentuated urinary reflex of rat due to destruction of the superior colliculus (cystometrogram); format: in vivo; settings: dose 0.3 mg/kg, iv; rat with superior colliculus lesion
Source text: (1) In the present test, Sprague-Dawley female rates (200-350 g) were used. The rats were subjected to median incision of the abdomen under anesthesia. Thereafter, a hole with a minor diameter was made on the head portion of the bladder, and a catheter used for measurement of an intravesical pressure was placed therein. A catheter used for administration of a test substance was placed in the femoral vein. These catheters were fixed at the occipital region of the rat through the subcutis. One day later, the urinary reflex of the rats was measured with a cystometrogram. Thereafter, the rats were fixed on a brain stereotaxis apparatus under anesthesia, and then subjected to median incision of the scalp. […] Thereafter, electric current was applied (65° C., 4 minutes), so as to damage the brain tissues. After completion of the operation, when the rat awakened from anesthesia, cystometrogram was conducted again to confirm the enhanced state of urinary reflex. A test substance was administered through the catheter placed in the femoral vein, and the action of the test substance to the urinary reflex was evaluated. In addition, the effects of several test substances were compared using the maximal reaction (Emax).

IC50 (5-HT1A receptor; receptor in high affinity (G-protein binding, MgCl2 10 mM) state, read-out: High affinity IC50): 0.2 nM | IC50 (5-HT1A receptor; receptor in low affinity (G-protein non-binding, Gpp(NH)p 1 mM) state, read-out: Low affinity IC50): 0.16 nM | L/H ratio (5-HT1A receptor; low affinity IC50 divided by high affinity IC50, 1 or smaller = no intrinsic activity, 2 or greater = intrinsic activity): 0.8
Compound: CNC(=O)c1ccc2ccn(C3CCN(CCc4c(OC)ccc5c4OC(C)(C)CC5=O)CC3)c2c1 [Compound 20, 1-{1-[2-(7-methoxy-2,2-dimethyl-4-oxochroman-8-yl)ethyl]piperidin-4-yl}-N-methyl-1H-indole-6-carboxamide]
Time of stay at light place (male C57BL mice; 0.03 mg/kg): 46 ± 9.4 s | Time of stay at light place (male C57BL mice; 0.1 mg/kg): 67 ± 19 s | Bladder capacity Emax [1]: 94%
